Where “and” joins values, the source holds several entries; their conditions need not be identical. Equal entries are not always repeated.
Test system: α7 nAChR
Experiment: Dynamic PET studies in piglets with kinetic modelling (2TCM)
Assay type: in vivo
Settings: for BPND / Rate Constant K1 / Rate Constant k2 / Rate Constant k3 / Rate Constant k4 / VND: piglet brain, 240 min scan data
Procedure: One-tissue and two-tissue compartment models (1TCM and 2TCM) were evaluated for mathematical description of [^18F]10a time-activity curves (TACs) in pig brain regions (Figure 3) using metabolite-corrected arterial plasma input functions. The 2TCM was identified as the more appropriate model based on its smaller Akaike information criterion (AIC) value. The four rate constants K1, k2, k3, and k4 were fitted and the non-displaceable volume of distribution (VND = K1/k2) and the binding potential (BPND = k3/k4) as defined by Innis et al. were calculated for each region of interest (Table 3 and Table 4).
Six female animals were used in this study with anesthesia and surgery performed as described previously. In brief, the animals received initially a premedication with midazolam (1 mg∙kg^−1 i.m.) followed by induction of anesthesia with 3% isoflurane in 70% N2O/30% O2. All incision sites were infiltrated with 1% lidocaine, and the anesthesia was maintained with 1.5% isoflurane throughout the surgical procedure. A central venous catheter was introduced through the left external jugular vein and used for the administration of the radiotracer and drugs, and for volume substitution with heparinized (50 IE∙mL^−1) lactated Ringer’s solution (2 mL∙kg^−1∙h^−1). An endotracheal tube was inserted by tracheotomy for artificial ventilation (Servo Ventilator 900C, Siemens-Elema, Solna, Sweden) after immobilization with pancuronium bromide (0.2 mg∙kg^−1∙h^−1). The artificial ventilation was adjusted to obtain normoxia and normocapnia (Radiometer ABL 500, Copenhagen, Denmark). Polyurethane catheters (i.d., 0.5 mm) were advanced through the left and the right femoral arteries into the abdominal aorta to withdraw arterial blood samples for regular monitoring of blood gases and for radiotracer input function measurements and metabolite analyses. The body temperature was monitored by a rectal temperature probe and maintained at ~38 °C by a heating pad. After the surgical procedure has been completed, anesthesia was maintained with 0.5% isoflurane in 70% N2O/30% O2, and the animals were allowed to stabilize for 1 h before imaging procedure.
PET imaging was performed according to the protocol described recently. In brief, a clinical tomograph (ECAT Exact HR+; Siemens Healthcare GmbH, Erlangen, Germany) was used with animals lying prone with the head placed in a custom-made head holder. For attenuation and scatter correction, transmission scans were acquired using three rotating ^68Ge rod sources. The radiotracer was injected as an intravenous (i.v.) bolus (10 mL saline with 340–494 MBq [^18F]10a) by a syringe pump within 2 min followed by flushing with 10 mL heparinized saline (50 IE∙mL^−1). PET scanning started at the time of injection (0 min) and dynamic emission data were acquired for a total of 240 min. Three animals were investigated under baseline conditions, and another three under blocking conditions with administration of 3 mg∙kg^−1 i.v. of the α7 nAChR partial agonist NS6740 at 3 min before radiotracer injection followed by a continuous infusion throughout the scan (1 mg∙kg^−1∙h^−1).
Arterial blood was sampled using a peristaltic pump during the first 20 min of the scan followed by manual sampling at 25, 30, 40, 50, 60, 90, 120, 150, 180, 210, and 240 min after injection. Plasma was obtained by centrifugation (13,000 rpm, 2 min at 21 °C) and total radioactivity concentration was measured using a gamma-counter (1470 Wizard; PerkinElmer, Shelton, CT, USA) cross-calibrated to the PET scanner. In addition, arterial whole blood was sampled manually at 4, 16, 30, 60, and 120 min p.i. and plasma obtained for metabolite analyses to determine the fraction of non-metabolized [^18F]10a.
The plasma input function was corrected for the presence of radioactive metabolites by determination of the parent fraction as described previously. […]

[1] = Cerebellum, blocking (NS6740), n = 3
[2] = Colliculi, blocking (NS6740), n = 3
[3] = Frontal Cortex, baseline, n = 3
[4] = Frontal Cortex, blocking (NS6740), n = 3
[5] = Hippocampus, blocking (NS6740), n = 3
[6] = Midbrain, blocking (NS6740), n = 3
[7] = Occipital Cortex, baseline, n = 3

SMILES: O=S1(=O)c2ccc([18F])cc2-c2ccc(N3CCN4CCC3CC4)cc21 [[^18F]10a]
- increase of VND under blocking conditions (NS6740 vs baseline): up to 4 fold
- time of peak concentrations of radioactivity in the brain (baseline, i.v., n = 3): 8–10 min p.i.
- SUVmax (baseline, other brain regions): 1.9–2.1
- SUVmax (baseline, thalamus, colliculi, and midbrain): > 2.2
- BPND (Cerebellum, baseline, n = 3): 2.5 and 2.53 ± 0.57
- Rate Constant K1 (Cerebellum, baseline, n = 3): 0.421 ± 0.048 mL·cm^−3·min^−1
- Rate Constant k2 (Cerebellum, baseline, n = 3): 0.131 ± 0.052 min⁻¹
- Rate Constant k3 (Cerebellum, baseline, n = 3): 0.067 ± 0.051 min⁻¹
- Rate Constant k4 (Cerebellum, baseline, n = 3): 0.026 ± 0.020 min⁻¹
- VND (Cerebellum, baseline, n = 3): 3.62 ± 1.47
- BPND [1]: 0.71 ± 1.10
- Rate Constant K1 [1]: 0.711 ± 0.148 mL·cm^−3·min^−1
- Rate Constant k2 [1]: 0.076 ± 0.014 min⁻¹
- Rate Constant k3 [1]: 0.016 ± 0.019 min⁻¹
- Rate Constant k4 [1]: 0.011 ± 0.016 min⁻¹
- VND [1]: 9.75 ± 3.57
- BPND (Colliculi, baseline, n = 3): 2.68 ± 1.42
- Rate Constant K1 (Colliculi, baseline, n = 3): 0.450 ± 0.072 mL·cm^−3·min^−1
- Rate Constant k2 (Colliculi, baseline, n = 3): 0.134 ± 0.074 min⁻¹
- Rate Constant k3 (Colliculi, baseline, n = 3): 0.070 ± 0.042 min⁻¹
- Rate Constant k4 (Colliculi, baseline, n = 3): 0.027 ± 0.018 min⁻¹
- VND (Colliculi, baseline, n = 3): 4.19 ± 2.37
- BPND [2]: 0.73 ± 0.74
- Rate Constant K1 [2]: 0.735 ± 0.182 mL·cm^−3·min^−1
- Rate Constant k2 [2]: 0.066 ± 0.007 min⁻¹
- Rate Constant k3 [2]: 0.011 ± 0.013 min⁻¹
- Rate Constant k4 [2]: 0.007 ± 0.015 min⁻¹
- VND [2]: 11.41 ± 3.90
- BPND [3]: 4.22 ± 2.93
- Rate Constant K1 [3]: 0.387 ± 0.059 mL·cm^−3·min^−1
- Rate Constant k2 [3]: 0.182 ± 0.153 min⁻¹
- Rate Constant k3 [3]: 0.142 ± 0.165 min⁻¹
- Rate Constant k4 [3]: 0.027 ± 0.015 min⁻¹
- VND [3]: 3.32 ± 2.06
- BPND [4]: 0.86 ± 0.92
- Rate Constant K1 [4]: 0.647 ± 0.117 mL·cm^−3·min^−1
- Rate Constant k2 [4]: 0.055 ± 0.011 min⁻¹
- Rate Constant k3 [4]: 0.014 ± 0.019 min⁻¹
- Rate Constant k4 [4]: 0.010 ± 0.020 min⁻¹
- VND [4]: 12.34 ± 4.27
- BPND (Hippocampus, baseline, n = 3): 5.5 and 5.50 ± 1.01
- Rate Constant K1 (Hippocampus, baseline, n = 3): 0.400 ± 0.023 mL·cm^−3·min^−1
- Rate Constant k2 (Hippocampus, baseline, n = 3): 0.188 ± 0.083 min⁻¹
- Rate Constant k3 (Hippocampus, baseline, n = 3): 0.145 ± 0.101 min⁻¹
- Rate Constant k4 (Hippocampus, baseline, n = 3): 0.025 ± 0.013 min⁻¹
- VND (Hippocampus, baseline, n = 3): 2.43 ± 0.96
- BPND [5]: 0.84 ± 1.70
- Rate Constant K1 [5]: 0.603 ± 0.118 mL·cm^−3·min^−1
- Rate Constant k2 [5]: 0.063 ± 0.023 * min^−1
- Rate Constant k3 [5]: 0.024 ± 0.030 min⁻¹
- Rate Constant k4 [5]: 0.011 ± 0.015 min⁻¹
- VND [5]: 10.81 ± 5.02
- BPND (Midbrain, baseline, n = 3): 3.40 ± 1.73
- Rate Constant K1 (Midbrain, baseline, n = 3): 0.436 ± 0.045 mL·cm^−3·min^−1
- Rate Constant k2 (Midbrain, baseline, n = 3): 0.162 ± 0.117 min⁻¹
- Rate Constant k3 (Midbrain, baseline, n = 3): 0.121 ± 0.132 min⁻¹
- Rate Constant k4 (Midbrain, baseline, n = 3): 0.029 ± 0.022 min⁻¹
- VND (Midbrain, baseline, n = 3): 4.04 ± 3.06
- BPND [6]: 0.61 ± 0.77
- Rate Constant K1 [6]: 0.685 ± 0.131 mL·cm^−3·min^−1
- Rate Constant k2 [6]: 0.063 ± 0.010 min⁻¹
- Rate Constant k3 [6]: 0.013 ± 0.014 min⁻¹
- Rate Constant k4 [6]: 0.012 ± 0.018 min⁻¹
- VND [6]: 11.17 ± 3.64
- BPND [7]: 3.16 ± 1.11
- Rate Constant K1 [7]: 0.395 ± 0.053 mL·cm^−3·min^−1
- Rate Constant k2 [7]: 0.123 ± 0.063 min⁻¹
- Rate Constant k3 [7]: 0.099 ± 0.087 min⁻¹
- Rate Constant k4 [7]: 0.030 ± 0.023 min⁻¹

— publication PMC6332508, “A Promising PET Tracer for Imaging of α7 Nicotinic Acetylcholine Receptors in the Brain: Design, Synthesis, and in Vivo Evaluation of a Dibenzothiophene-Based Radioligand” (Molecules, 2015)
